Laboratory results published in patent US6177475A, “Methods of using integrin modulators for treatment of inflammation” (priority 1997, dated 2001).
pIC50: −log10 of the molar value.

Tests used:
Type in all cases: cell-based
[1] = tested on: MT-2 cells / K562/VCAM-1 cells (HTLV-I); assay: Syncytium formation of HTLV-I-infected MT-2 cells with K562/VCAM-1 cells; conditions: Primate T-lymphotropic virus 1, MT2, 4 h
Text: MT-2 cells harbor the complete genome of human T cell lymphotropic virus type 1 (HTLV-I), and they transmit the virus to susceptible uninfected cells in cocultures. The transmission manifests itself as fusion of MT-2 cells with the uninfected cells, followed by syncytium formation. K562 cells transfected with VCAM-1, a ligand of the integrin VIA-4, were used as a fusion partner for MT-2 cells. MT-2 and K562/VCAM-1 cells were washed and resuspended in complete RPMI medium at a density of 2×10^6 /ml. MT2 cells were seeded into flat-bottom 96-well microtiter plates (100 microliters per well). Serial dilutions of Ajoene or of the disintegrin kistrin (final concentration) were introduced into the wells, and the plate was incubated for 30 min prior to addition of 100 microliters of K562/VCAM-1 cells. The plates were then incubated for 4 h before scoring syncytium formation.

VLA-4 (VCAM-1) = assay: Adhesion of TPA-activated Jurkat cells to SVT2/VCAM-1 monolayers; conditions: Homo sapiens, 0.75 h, SVT2/VCAM-1, TPA 125 ng/ml, 45 min
Protocol: SVT2 cells transfected with human ICAM-1 or VCAM-1 (SVT2/ICAM-1 and […], respectively) were plated into 96-well plates and cultured overnight. […] The labeled Jurkat cells were washed three times and resuspended at a density of 4×10^6 cells/ml in complete RPMI medium. Serial dilutions of Ajoene were prepared in complete RPMI medium. Aliquots of the cells (0.5 ml) were then mixed with an equal volume of Ajoene dilutions (1:1 v/v), and the mixtures incubated at 37° C. for 30 min. Thereafter, Ajoene-incubated cells were added in duplicate to SVT2/ICAM-1 and SVT2/VCAM-1 monolayers, and TPA was introduced into each well to the final concentration of 125 ng/ml. The plates were incubated at 37° C. for 45 min, after which the non-adherent cells were removed by washing with warm complete RPMI medium. The bound labeled cells were lysed by adding 1% Triton X-100 solution in 0.1 N HCl. The lysates were assayed in a gamma counter to determine the percentage of bound cells. […] Thus, coculturing of Jurkat cells with SVT2/ICAM-1 and SVT2/VCAM-1 cells makes it possible to assess, respectively, the function of IFA-1 and VLA-4 under identical conditions. In the absence of TPA, 10 and 20% of the added Jurkat cells adhered to SVT2/ICAM-1 and SVT2/VCAM-1 cells, respectively. […]

[2] = tested on: VLA-4 (MV3 cells, VCAM-1); assay: VLA-4-dependent adhesion of human melanoma MV3 cells to VCAM-1; conditions: MV-3, 1 h, 37° C.
Protocol: Microtiter plates were coated with ligands of the integrin VLA-4, i.e., recombinant human VCAM-1 (500 nanograms per well) or the fragment of connective segment of human fibronectin (CS-1), covalently attached to ovalbumin (5 micrograms per well) by overnight incubation (4° C.) with solutions of the proteins in phosphate-buffered saline (PBS). The plates were blocked with 1% bovine serum albumin (BSA) in Hanks' buffered salt solution (HBSS-BSA). The cells (Jurkat or human melanoma MV3) were labeled with the fluorescent dye 5-chloromethylfluorescein diacetate (CMFDA) and introduced into the wells of the plates (10^5 cells per well) together with varying amounts of Ajoene. After incubation at 37° C. for 1 h, the unbound cells were removed by aspiration and the wells washed four times with HBSS-BSA. Thereafter, the bound cells were lysed with 0.5% Triton X-100, and the fluorescence was measured using a Cytofluor 2300 plate reader. The number of adherent cells was calculated from a standard dilution curve of Triton X-100 lysates of the CMFDA-labeled cells.

[3] = tested on: SupT1LAV-BRU cells / SupT1 cells (HIV-1LAV-BRU); assay: HIV-induced syncytium formation, SupT1LAV-BRU donor with SupT1 recipient; conditions: Human immunodeficiency virus 1, SUP-T1, 16 h, read-out: IC50 of Ajoene, syncytium formation
Protocol: Chronically infected and uninfected cell lines (HIV donors and targets, respectively) were maintained as suspension cultures in RPNI-1640 medium supplemented with 10% (v/v) heat-inactivated fetal calf serum, 50 micrograms/ml gentamycin and 2 mM L-glutamine. HIV donors used were (1) a cloned population of H9 cells harboring the genome of HIV-1RF (H9RF cells); and (2) a cloned population of SupT1 cells harboring the genome of HIV-1LAV-BRU (SupT1LAV-BRU cells). To assess the effect of Ajoene on syncytium formation, the donors were mixed with their respective recipients, H9 and SupT1, at a ratio of 1:2 in 96-well flat-bottomed plates (3×10^5 cells per well). Log 10 dilutions of Ajoene were then introduced into the wells, and the cells were cocultured for 16 h. Control wells received the vehicle of Ajoene. By the end of the incubation period syncytia were counted, and the values of IC50 for Ajoene were calculated by plotting relative amounts of syncytia (percent of the syncytia formed in the absence of the compound) against Ajoene concentration.

With `C=CCSSC=CC[S+]([O-])CC=C` (centres unmarked) [Ajoene, 4,5,9-trithiadodeca-1,6,11-triene-9-oxide] as the compound, how does the pIC50 ([1]; read-out: IC50 for syncytium formation) read?
The pIC50 was ~6.22.

What about the IC100 ([1]; read-out: IC100 for syncytium formation) of the same compound?
Its IC100 is 4.3 µM.

What about the pIC50 (VLA-4 (VCAM-1)) of the same compound?
The pIC50 was ~4.70.

What about the pIC50 [2] of the same compound?
The pIC50 was 3.90.

What about the pIC50 [3] of the same compound?
Its pIC50 is ~8.30.
